Measured values as given in patent publication US9453242B2, “Method and culture medium for preparing mammalian ovum or embryo in which zona pellucida has been thinned or eliminated, and method for fertilization using mammalian ovum prepared by same method” (NATIONAL UNIVERISTY CORPORATION KUMAMOTO UNIVERSITY, priority 2010, dated 2016).
Like-named read-outs stand apart in the source and are kept apart here.

Legend:
[1] = Experimental: Mouse fresh unfertilized ovums in which cumulus cells had been removed prepared according to the above-described “1. Preparation of oocyte” were prepared, then, 10 μl of an HTF culture medium containing glutathione at various concentrations (5, 10, 25, 50, 100, 200 and 300 mM) was dropped onto the bottom of a petri dish, and 20 ovums were inserted into this, and the time until elimination of zona pellucida was measured.
[2] = test system: mouse embryo in the early stages of development (8-cell stage embryo); details: glutathione 100 mM, 20° C., 90 seconds
Source text: The zona pellucida of a mouse embryo in the early stages of development (8-cell stage embryo) used for production of a genetically modified mouse was eliminated.

[3] = test system: mouse frozen unfertilized ovums
Experimental: According to an ordinary method, mouse frozen unfertilized ovums were prepared using 8-week old female mice.

[4] = test system: frozen sperms of C57BL/6J mice; assay: In vitro fertilization after sperm pre-incubation with MBCD and/or glutathione; format: cell-based, mouse; details: for number of 2-cell stage embryo(%) / number of 2-cell stage embryo: sperm pre-incubation MBCD −
Experimental: A sperm suspension is pre-incubated in 90 μl of a TYH culture medium at 37° C. for 30 minutes, and under a stereomicroscope, sperms showing motility are collected, avoiding nonmotile sperms, and used for fertilization. The pre-incubated sperm suspension (10 μl) is added to 90 μl of an HTF culture medium (±glutathione) into which cumulus-oocyte complexes (COCs) have been previously introduced (insemination), and these are co-incubated in an incubator for 5 to 6 hours (37° C., 5% CO2), thereby performing fertilization. Thereafter, the ovum is washed with drops of new HTF, and the ovum is observed. Those judged to parthenogenetic (only one pronucleus is recognized in ooplasm) are excluded, and on the following day (24 hours after insemination), only 2-cell stage embryos are selected, and fertilization rate is determined according to the following formula. In vitro fertilization rate (%)=(number of 2-cell stage embryo)/(number of 2-cell stage embryo+number of unfertilized ovum)×100
The TYH culture medium used for pre-incubation of sperms was prepared according to the above-described composition excepting that polyvinyl alcohol (1.0 mg/ml, available from SIGMA) was used instead of bovine serum albumin, and methyl-β-cyclodextrin (0.75 mM, available from SIGMA) was added. Further, the concentration of glutathione in the TYH culture medium was 1 mM, preparation was carried out in the same manner as in Example 1, and glutathione was added to the TYH culture medium directly before use. The influence on fertilization rate was compared among those containing methyl-β-cyclodextrin, those containing glutathione and those containing both compounds.
Fertilization was conducted with 90 μl of an HTF culture medium (in the case of addition of glutathione, the concentration was 1 mM) containing cumulus-oocyte complexes (COCs), in the same manner as in Example 1 (IVF/glutathione in table). As the sperm, frozen sperms of C57BL/6J mice were used, and processed according to FIG. 1. Thawed sperms were pre-incubated in a TYH culture medium (±glutathione, ±methyl-β-cyclodextrin) at 37° C. for 30 minutes, and sperms showing motility were collected and used for fertilization. The experiment was conducted five times.

[5] = freeze-thawed ovums, zona pellucida eliminated with 100 mM glutathione

- pH ([1]; HTF culture medium with glutathione 5 mM): 7.3
- pH ([1]; HTF culture medium with glutathione 10 mM): 7.4
- pH ([1]; HTF culture medium with glutathione 25 mM): 6.1
- pH ([1]; HTF culture medium with glutathione 50 mM): 4.0
- pH ([1]; HTF culture medium with glutathione 100 mM): 3.5
- pH ([1]; HTF culture medium with glutathione 200 mM): 3.1
- pH ([1]; HTF culture medium with glutathione 300 mM): 3.1
Structure (SMILES): N[C@@H](CCC(=O)N[C@@H](CS)C(=O)NCC(=O)O)C(=O)O [glutathione, reduced glutathione]
- elimination of zona pellucida of 8-cell stage embryo [2]: elimination of zona pellucida from a 8-cell stage embryo
- fertilization rate [3, 5]: 25%
- fertilization rate (fertilized/total) [3, 5]: 125/492
- condition of zona pellucida of freeze-thawed unfertilized ovum ([3]; glutathione 100 mM, 20° C., 90 seconds): the zona pellucida of a freeze-thawed unfertilized ovum was eliminated
- effect of treating unfertilized ovums on fertilization rate ([4]; glutathione 1 mM in IVF medium): remarkable improvement in fertilization rate
- number of 2-cell stage embryo(%) ([4]; glutathione + (1 mM), IVF glutathione −): 15%
- number of 2-cell stage embryo ([4]; glutathione + (1 mM), IVF glutathione −, 344 oocytes): 53
- number of 2-cell stage embryo(%) ([4]; glutathione +, IVF glutathione +): 38%
- number of 2-cell stage embryo ([4]; glutathione +, IVF glutathione +, 371 oocytes): 140
- number of 2-cell stage embryo(%) ([4]; glutathione −, IVF glutathione + (1 mM)): 36%
- number of 2-cell stage embryo ([4]; glutathione −, IVF glutathione + (1 mM), 381 oocytes): 136
- effect of sperm pre-incubation on fertilization rate ([4]; sperms pre-incubated with 1 mM glutathione or 0.75 mM MBCD, 37° C., 30 minutes): improvement in fertilization rate was not observed
